Type in all cases: binding
For test [1], the system named is sheep anti-digoxin serum. As to the kind of experiment: assay of digoxin by mixed agglutination of Ab-latex and conjugate-latex, selective optical counting of unagglutinated particles. Conditions: Table 3.
The subject of test [2] is sheep anti-digoxin serum. As to the kind of experiment: Example 3: digoxin mixed agglutination with equal-sized or different-sized latex. On the procedure:
(§1) Latex particles (0.09μ diameter, polystyrene, Dow Chemical Co.) as a 10% by weight suspension as supplied) was diluted 20-fold in dilute glycine-buffered saline (dGBS-20 mM glycine, 34 mM NaCl, pH 9) containing 0.2 mg/ml of the Rivanol-soluble fraction (prepared by the method of Stastny and Horejsi, Clin. Chim. Acta (1961), 6, 782) of sheep anti-digoxin serum, and incubated at room temperature for 30 minutes. 1/10th volume of 10 mg bovine serum albumin (bSA) per ml. dGBS was then added (to ensure that the latex was completely coated with protein), and after a further 30 minutes incubation, the coated latex was washed twice by centrifugation and resuspended in dGBS. Finally, the coated latex was resuspended as a 0.5% suspension in GBS (0.1 M glycine, 0.17 M NaCl, pH 9) containing 1 mg bSA/ml.
(§2) The same procedure was followed as in (a) except that the latex used was of 1.1μ diameter and incubation was performed at an Ag-conjugate concentration of 4μg/ml, followed by the addition of 1/10 volume of 10 mg/ml transferrin. The Ag-conjugate was prepared by the oxidative coupling of digoxin and ethylene glycol followed by reductive coupling of this complex to the protein. 50 mg digoxin dissolved in 2 ml absolute alcohol was incubated for 25 minutes with 2 ml 0.1 M NalO4, then 60 μl of ethylene glycol was added for a further 5 minutes incubation. This reaction mixture was then added to a solution of 60 mg human transferrin in 2 ml water, brought to pH 9.5 by addition of 5% Na2 CO3, and incubated for 45 minutes. 30 mg NaBH4 freshly dissolved in 2 ml water was added and incubation was continued for 3 hours. At the end of this time, the pH of the reaction mixture was reduced to 6.5 by addition of 1 M HCOOH to destroy any unreacted NaBH4, and after a further hour of incubation, 1 M NH4 OH was added to raise the pH to 8.5, and the preparation was dialysed against running water for 2 days at 4° C. (all other operations were at room temperature).
(§3) Sera used for the assay of digoxin were first heated with acid to reduce serum intereference. 25 μl of serum was heated to 56° C. for 10 minutes with 25 μl of 0.1 N HCl, then made alkaline by the addition of 10 μl 2 M Na2 CO3. To these heated sera were added 25 μl of Ab-latex (diluted 1:10 with GBS containing 1 mg bSA/ml) and 25 μl of conjugate-latex (diluted 1:4 with GBS containing 1 mg human transferrin/ml). They were then incubated in vertically-positioned tubes agitated horizontally on a shaking incubator for 15 minutes at room temperature. At the end of this time, the tube contents were diluted with 5 ml GBS and after a further 20-fold dilution with GBS containing 0.01% Tween 20, passed through the flowcell of a Technicon Autocounter at 2 ml/min. The relative numbers of unagglutinated (monomer) latex particles in each sample were determined (as also may be the relative numbers of agglutinated particles) by selective optical counting.
Example 1 was repeated using latex particles of the same (as opposed to different) size and the following results were obtained: […]

The test system of test [3] is sheep anti-digoxin serum. As to the kind of experiment: latex immunoassay of digoxin read by turbidimetry (optical density at 400 nm).
Test [4] concerns sheep anti-digoxin serum. The experiment in a line: assay of digoxin by mixed agglutination of Ab-latex and conjugate-latex, selective optical counting of unagglutinated particles. Conditions: Table 1. Here is the method: This Example illustrates the assay of digoxin.
as §1, §2, §3
In the selective optical counting of particles, the amount of light scattered by a particle is dependent on the size of the particle; in turn, the electronic impulse generated in the photocell will be proportional to the size of the particle, and particles of different sizes may be counted separately. Table 2 illustrates the improvement in precision of determination (by providing a more extended range for the standard curve) that may be obtained by counting only unagglutinated particles (monomers) as opposed to counting all particles (total). […]

The subject of test [5] is rabbit anti-thyroxine (T4) serum. As to the kind of experiment: assay of thyroxine by mixed agglutination. To be noted: maximum = Ag-latex alone. Here is the method:
This Example illustrates the assay of thyroxine. […] After incubation at 0° for 1 hour, 250 μl of 25% ethanolamine in PBS was added, and the incubation prolonged for 30 minutes. The latex was then washed twice by centrifugation and resuspension in fresh PBS (1 ml each time), and then dialysed for 16 hours at 4° against 1 l PBS. […] The method of this latex preparation was exactly the same as for the assay of digoxin (Example 1) except that the Ab was from rabbit anti-thyroxine (T4) serum. […] The maximum value in this case was for the Ag-latex alone, all the above values being found in the presence of Ag-latex as well.

Test [6] is described as follows: latex immunoassay of hPL, comparison of counting methods. To be noted: 2.5 ngs hPL/ml. From the text: In the selective optical counting of particles, the amount of light scattered by a particle is dependent on the size of the particle; in turn, the electronic impulse generated in the photocell will be proportional to the size of the particle, and particles of different sizes may be counted separately. Table 2 illustrates the improvement in precision of determination (by providing a more extended range for the standard curve) that may be obtained by counting only unagglutinated particles (monomers) as opposed to counting all particles (total). The Table also illustrates the great increase in sensitivity that may be realized by calculating the ratio of unagglutinated to agglutinated particles (monomer/polymer ratio). By counting particles at all, an increase in sensitivity and precision may be realized by comparison with other methods of end-point determination.

For `C[C@H]1O[C@@H](O[C@H]2[C@@H](O)C[C@H](O[C@H]3[C@@H](O)C[C@H](O[C@H]4CC[C@@]5(C)[C@H](CC[C@@H]6[C@@H]5C[C@@H](O)[C@]5(C)[C@@H](C7=CC(=O)OC7)CC[C@]65O)C4)O[C@@H]3C)O[C@@H]2C)C[C@H](O)[C@@H]1O` [Digoxin, digoxin], the “Particle count (monomers)” value was 40 percentage of that found in th in the test on sheep anti-digoxin serum [1] (digoxin 0.31 ng/ml in serum); 44 percentage of that found in th in the test with sheep anti-digoxin serum [1] (digoxin 0.625 ng/ml in serum); 63 percentage of that found in th with sheep anti-digoxin serum [1] (digoxin 1.25 ng/ml in serum); 90 percentage of that found in th in the test on sheep anti-digoxin serum [1] (digoxin 2.5 ng/ml in serum); 100 percentage of that found in th in the test with sheep anti-digoxin serum [1] (digoxin 5.0 ng/ml in serum). Besides, the “Unagglutinated Particles (as % of maximum)” value with sheep anti-digoxin serum [2] (Different-sized latex, digoxin 1 ng/ml in serum) was 30%; in the test on sheep anti-digoxin serum [2] (Different-sized latex, digoxin 4 ng/ml in serum), 76%; with sheep anti-digoxin serum [2] (Different-sized latex, digoxin 10 ng/ml in serum), 100%; in the test with sheep anti-digoxin serum [2] (Equal-sized latex, digoxin 1 ng/ml in serum), 78%; in the test on sheep anti-digoxin serum [2] (Equal-sized latex, digoxin 4 ng/ml in serum) it was 95%; in the test with sheep anti-digoxin serum [2] (Equal-sized latex, digoxin 10 ng/ml in serum), 100%. Further, the “Unagglutinated Particles (as % of maximum)” value in the test with sheep anti-digoxin serum [4] (digoxin 0.31 ng/ml in serum) came to 40%; in the test with sheep anti-digoxin serum [4] (digoxin 0.625 ng/ml in serum), 44%; in the test with sheep anti-digoxin serum [4] (digoxin 1.25 ng/ml in serum), 63%; in the test on sheep anti-digoxin serum [4] (digoxin 2.5 ng/ml in serum), 90%; in the test with sheep anti-digoxin serum [4] (digoxin 5.0 ng/ml in serum), 100%. In addition, the Turbidity with sheep anti-digoxin serum [3] (digoxin 0.31 ng/ml in serum) is listed as 74 percentage of that found in th; in the test on sheep anti-digoxin serum [3] (digoxin 0.625 ng/ml in serum) it was 71 percentage of that found in th; in the test with sheep anti-digoxin serum [3] (digoxin 1.25 ng/ml in serum), 82 percentage of that found in th; with sheep anti-digoxin serum [3] (digoxin 2.5 ng/ml in serum) it was 100 percentage of that found in th; in the test on sheep anti-digoxin serum [3] (digoxin 5.0 ng/ml in serum) it was 100 percentage of that found in th.
Turning to `N[C@@H](Cc1cc(I)c(Oc2cc(I)c(O)c(I)c2)c(I)c1)C(=O)O` [T4, thyroxine], the “Particle concentration (% maximum)” value in test [5] (10 ng T4/ml serum) was 51.5%; in test [5] (50 ng T4/ml serum), 59.5%; in test [5] (200 ng T4/ml serum), 89%.

B1: hPL: human placental lactogen (protein, UniProt P0DML2 27-217, looked up)
Chorionic somatomammotropin …: VQTVPLSRLFDHAMLQAHRAHQLAIDTYQEFEETYIPKDQKYSFLHDSQTSFCFSDSIPTPSNMEETQQKSNLELLRISLLLIESWLEPVRFLRSMFANNLVYDTSDSDDYHLLKDLEEGIQTLMGRLEDGSRRTGQILKQTYSKFDTNSHNHDALLKNYGLLYCFRKDMDKVETFLRMVQCRSVEGSCGF
Consider B1, for which the Monomer/polymer ratio in test [6] is on record as 81 percentage of that obtained in.

The record behind these values is patent US4184849A, “Mixed agglutination” (Technicon Instruments Corporation, priority 1977, dated 1980).
